Results as given in US20250333388A1, “OXADIAZOLONE COMPOUNDS AND HERBICIDAL COMPOSITIONS AND USES THEREOF” (SHANDONG BINNONG TECHNOLOGY CO., LTD., priority 2023, published 2025).

Legend:
Assay type in all cases: in vivo
abutilon = experiment: Test of herbicidal activity, post-seedling stem and leaf spray in greenhouse, abutilon; details: for herbicidal activity against abutilon compared with Control compounds A, B and C: at different doses, summary of Table 5; for Abutilon (%) control effect: post-seedling stem and leaf spray
Procedure: (§1) Seeds of broadleaf weeds (abutilon, Solanum nigrum) or gramineous weeds (crabgrass, barnyard grass) were sown into nutrient soil in plastic cups, respectively, and then covered with soil, compacted, watered, and further cultivated in a greenhouse by conventional methods. The stems and leaves of the weeds were sprayed when the weeds reached the 2- to 3-leaf stage. The test compounds of the present application were dissolved in acetone respectively, followed by addition of Tween 80. The solution was diluted with a certain amount of water to a certain solubility, and then sprayed onto the plants using a spray tower. The test was repeated three times. After drying naturally in the shade, the plants were put in a greenhouse and managed according to conventional methods. The growth and development of weeds were observed, and the control effect of the test agent on weeds was checked visually periodically, which was expressed by 0-100%, with “0” representing no control effect, and “100%” representing complete killing or severe inhibition.

Solanum nigrum = experiment: Test of herbicidal activity, post-seedling stem and leaf spray in greenhouse, Solanum nigrum; details: for herbicidal activity against Solamum nigrum compared with Control compounds A, B and C: at different doses, summary of Table 5; for Solanum nigrum (%) control effect: post-seedling stem and leaf spray
Procedure: as §1

crabgrass = experiment: Test of herbicidal activity, post-seedling stem and leaf spray in greenhouse, crabgrass; details: for herbicidal activity against crabgrass compared with Control compounds A, B and C: at different doses, summary of Table 5; for Crabgrass (%) control effect: post-seedling stem and leaf spray
Procedure: as §1

barnyard grass = experiment: Test of herbicidal activity, post-seedling stem and leaf spray in greenhouse, barnyard grass; details: for herbicidal activity against barnyard grass compared with Control compounds A, B and C: at different doses, summary of Table 5; for Barnyard grass (%) control effect: post-seedling stem and leaf spray
Procedure: as §1

corn = experiment: Safety testing on corn, stem and leaf spray in greenhouse; details: for inhibitory effect on corn (crop safety): at different doses, as compared to Control compounds A, B, and C, summary of Table 6; for Corn (%) safety (crop damage): stem and leaf spray
Procedure: (§2) The seeds of corn and rice were sown into nutrient soil in plastic cups, respectively, then covered with soil, compacted, watered, and further cultivated in a greenhouse by conventional methods. The stems and leaves of the crops were sprayed when the crops reached the 2- to 3-leaf stage. The test compounds of the present application were dissolved in acetone, followed by addition of Tween 80. The solution was then diluted with a certain amount of water to a certain solubility, and sprayed onto the plants using a spray tower. The test was repeated three times. After drying naturally in the shade, the plants were put in a greenhouse and managed according to conventional methods. The growth and development of corn and rice were observed, and the safety of the test agent on corn and rice was checked visually periodically. A safety grading standard was represented by 0-100%, with “O” representing no damage to crops, and “100%” representing complete killing or severe inhibition of crops.

rice = experiment: Safety testing on rice, stem and leaf spray in greenhouse; details: for inhibitory effect on rice (crop safety): at different doses, as compared to Control compounds A, B, and C, summary of Table 6; for Rice (%) safety (crop damage): stem and leaf spray
Procedure: as §2

[1] = dose 300 g a.i/ha, 0 = no control effect, 100% = complete killing or severe inhibition
[2] = dose 300 g a.i/ha, 0 = no damage to crops, 100% = complete killing or severe inhibition

SMILES | herbicidal activity against abutilon compared with Control compounds A, B and C (abutilon) | Abutilon (%) control effect (abutilon; dose 37.5 g a.i/ha) [%] | Abutilon (%) control effect (abutilon; dose 75 g a.i/ha) [%] | Abutilon (%) control effect (abutilon; dose 150 g a.i/ha) [%] | Abutilon (%) control effect (abutilon; [1]) [%] | herbicidal activity against Solamum nigrum compared with Control compounds A, B and C (Solanum nigrum) | Solanum nigrum (%) control effect (Solanum nigrum; dose 37.5 g a.i/ha) [%] | Solanum nigrum (%) control effect (Solanum nigrum; dose 75 g a.i/ha) [%] | Solanum nigrum (%) control effect (Solanum nigrum; dose 150 g a.i/ha) [%] | Solanum nigrum (%) control effect (Solanum nigrum; dose 300 g a.i/ha) [%] | herbicidal activity against crabgrass compared with Control compounds A, B and C (crabgrass) | Crabgrass (%) control effect (crabgrass; dose 37.5 g a.i/ha) [%] | Crabgrass (%) control effect (crabgrass; dose 75 g a.i/ha) [%] | Crabgrass (%) control effect (crabgrass; dose 150 g a.i/ha) [%] | Crabgrass (%) control effect (crabgrass; dose 300 g a.i/ha) [%] | herbicidal activity against barnyard grass compared with Control compounds A, B and C (barnyard grass) | Barnyard grass (%) control effect (barnyard grass; dose 37.5 g a.i/ha) [%] | Barnyard grass (%) control effect (barnyard grass; dose 75 g a.i/ha) [%] | Barnyard grass (%) control effect (barnyard grass; dose 150 g a.i/ha) [%] | Barnyard grass (%) control effect (barnyard grass; dose 300 g a.i/ha) [%] | further results
Cc1nn(Cc2c(S(C)(=O)=O)ccc(C(=O)C3C(=O)CCCC3=O)c2Cl)c(=O)o1 [Compound 1] | better herbicidal activities | 65 | 90 | 98 | 100 | better herbicidal activities | 60 | 90 | 95 | 100 | better herbicidal activities | 50 | 75 | 85 | 95 | better herbicidal activities | 55 | 80 | 90 | 98 | 
CCS(=O)(=O)c1ccc(C(=O)C2C(=O)CCCC2=O)c(Cl)c1Cn1nc(C)oc1=O [Compound 6] |  |  |  |  |  |  |  |  |  |  |  |  |  |  |  |  |  |  |  |  | inhibitory effect on corn (crop safety) (corn): no significant inhibitory effect; Corn (%) safety (crop damage) (corn; dose 37.5 g a.i/ha): 0%; Corn (%) safety (crop damage) (corn; dose 75 g a.i/ha): 0%; Corn (%) safety (crop damage) (corn; dose 150 g a.i/ha): 0%; Corn (%) safety (crop damage) (corn; [2]): 5%; inhibitory effect on rice (crop safety) (rice): no significant inhibitory effect; Rice (%) safety (crop damage) (rice; dose 37.5 g a.i/ha): 0%; Rice (%) safety (crop damage) (rice; dose 75 g a.i/ha): 0%; Rice (%) safety (crop damage) (rice; dose 150 g a.i/ha): 5%; Rice (%) safety (crop damage) (rice; dose 300 g a.i/ha): 10%
CCOC1=C(C(=O)c2ccc(S(C)(=O)=O)c(Cn3nc(C)oc3=O)c2Cl)C(=O)CCC1 [Compound 32] | better herbicidal activities | 65 | 90 | 98 | 100 | better herbicidal activities | 60 | 90 | 95 | 100 | better herbicidal activities | 50 | 75 | 85 | 90 | better herbicidal activities | 55 | 80 | 90 | 95 | 
Cc1nn(Cc2c(S(C)(=O)=O)ccc(C(=O)c3c(C)nn(C)c3O)c2Cl)c(=O)o1 [Compound 58] |  |  |  |  |  |  |  |  |  |  |  |  |  |  |  |  |  |  |  |  | inhibitory effect on corn (crop safety) (corn): no significant inhibitory effect; Corn (%) safety (crop damage) (corn; dose 37.5 g a.i/ha): 0%; Corn (%) safety (crop damage) (corn; dose 75 g a.i/ha): 0%; Corn (%) safety (crop damage) (corn; dose 150 g a.i/ha): 0%; Corn (%) safety (crop damage) (corn; [2]): 0%; inhibitory effect on rice (crop safety) (rice): no significant inhibitory effect; Rice (%) safety (crop damage) (rice; dose 37.5 g a.i/ha): 0%; Rice (%) safety (crop damage) (rice; dose 75 g a.i/ha): 0%; Rice (%) safety (crop damage) (rice; dose 150 g a.i/ha): 0%; Rice (%) safety (crop damage) (rice; dose 300 g a.i/ha): 5%
